Measurements reported in BindingDB's records for doi:10.1021/np960678l (1997).

Target: T1, 5-hydroxytryptamine receptor 1A (Homo sapiens, UniProt P08908)
T1 sequence (P08908 whole entry): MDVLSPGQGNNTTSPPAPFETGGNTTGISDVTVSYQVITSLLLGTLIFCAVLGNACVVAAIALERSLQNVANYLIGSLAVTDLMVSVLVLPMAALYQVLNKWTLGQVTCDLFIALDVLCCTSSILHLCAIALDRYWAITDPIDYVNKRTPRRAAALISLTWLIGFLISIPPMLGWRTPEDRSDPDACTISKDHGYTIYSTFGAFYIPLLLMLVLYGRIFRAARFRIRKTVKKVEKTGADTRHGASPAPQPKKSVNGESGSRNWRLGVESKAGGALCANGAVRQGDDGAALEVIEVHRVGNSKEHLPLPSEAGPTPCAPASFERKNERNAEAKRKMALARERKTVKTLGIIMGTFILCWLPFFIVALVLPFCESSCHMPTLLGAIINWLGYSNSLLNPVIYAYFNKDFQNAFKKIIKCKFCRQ
Assay: Displacement of [3H]8-OH-DPAT from 5HT1A receptor by vacuum filtration

- Ki: > 100 µM
Structure (SMILES): COc1cc(-c2oc3cc(O)cc(=O)c-3c(O)c2O[C@@H]2O[C@H](CO)[C@H](O)[C@H](O)[C@H]2O)ccc1O [isohamnetin 3-O-galactoside]
